Measurements taken from PubChem BioAssay (NCI).
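96-well plates; 48 h exposure; 5 concentrations. Endpoints by linear interpolation between flanking doses. Not reached: highest tested concentration assigned. Abbreviation: GI50, concentration required for 50% inhibition of growth. TGI is the concentration that stops growth completely.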

Tests used:
Experiment in all cases: NCI anticancer screen, dose series, 48 h
786-0 renal = system: 786-0 renal
A498 renal = system: A498 renal
A549 NSCLC = system: A549 NSCLC
ACHN renal = system: ACHN renal
BT-549 breast = system: BT-549 breast
CAKI-1 renal = system: CAKI-1 renal
CCRF-CEM leukemia = system: CCRF-CEM leukemia
COLO 205 colon = system: COLO 205 colon
DU-145 prostate = system: DU-145 prostate
EKVX NSCLC = system: EKVX NSCLC
HCC-2998 colon = system: HCC-2998 colon
HCT-116 colon = system: HCT-116 colon
HCT-15 colon = system: HCT-15 colon
HL-60(TB) leukemia = system: HL-60(TB) leukemia
HOP-62 NSCLC = system: HOP-62 NSCLC
HOP-92 NSCLC = system: HOP-92 NSCLC
HS 578T breast = system: HS 578T breast
HT29 colon = system: HT29 colon
IGROV1 ovarian = system: IGROV1 ovarian
K-562 leukemia = system: K-562 leukemia
KM12 colon = system: KM12 colon
LOX IMVI melanoma = system: LOX IMVI melanoma
M14 melanoma = system: M14 melanoma
MALME-3M melanoma = system: MALME-3M melanoma
MCF7 breast = system: MCF7 breast
MDA-MB-231 breast = system: MDA-MB-231 breast
MDA-MB-435 = system: MDA-MB-435
MOLT-4 leukemia = system: MOLT-4 leukemia
NCI-H226 lung = system: NCI-H226 lung
NCI-H23 lung = system: NCI-H23 lung
NCI-H460 lung = system: NCI-H460 lung
NCI-H522 lung = system: NCI-H522 lung
NCI/ADR-RES ovarian = system: NCI/ADR-RES ovarian
OVCAR-4 ovarian = system: OVCAR-4 ovarian
OVCAR-5 ovarian = system: OVCAR-5 ovarian
OVCAR-8 ovarian = system: OVCAR-8 ovarian
PC-3 prostate = system: PC-3 prostate
RPMI-8226 leukemia = system: RPMI-8226 leukemia
RXF 393 renal = system: RXF 393 renal
SF-268 CNS = system: SF-268 CNS
SF-295 CNS = system: SF-295 CNS
SF-539 CNS = system: SF-539 CNS
SK-MEL-2 melanoma = system: SK-MEL-2 melanoma
SK-MEL-28 melanoma = system: SK-MEL-28 melanoma
SK-MEL-5 melanoma = system: SK-MEL-5 melanoma
SK-OV-3 ovarian = system: SK-OV-3 ovarian
SN12C renal = system: SN12C renal
SNB-19 CNS = system: SNB-19 CNS
SNB-75 CNS = system: SNB-75 CNS
SR leukemia = system: SR leukemia
SW-620 colon = system: SW-620 colon
T-47D breast = system: T-47D breast
TK-10 renal = system: TK-10 renal
U251 CNS = system: U251 CNS
UACC-257 melanoma = system: UACC-257 melanoma
UACC-62 melanoma = system: UACC-62 melanoma
UO-31 renal = system: UO-31 renal

Work on O=C(NNc1nc2cc(F)ccc2n2c(CN3CCCC3)ccc12)c1cnccn1 yielded a GI50 (786-0 renal) of 2.07 µM, a TGI (786-0 renal) of 11.3 µM and a GI50 (A498 renal) of 1.31 µM. The TGI (A498 renal) was 4.99 µM, the GI50 (A549 NSCLC) was 1.38 µM and the TGI (A549 NSCLC) was 12.2 µM. It also gave a GI50 (ACHN renal) of 0.899 µM, a TGI (ACHN renal) of over 100 µM and a GI50 (BT-549 breast) of 3.26 µM. For the same molecule, the TGI (BT-549 breast) was 26 µM, the GI50 (CAKI-1 renal) was 1.61 µM and the TGI (CAKI-1 renal) was 18.1 µM. The GI50 (CCRF-CEM leukemia) was 0.521 µM, the TGI (CCRF-CEM leukemia) was over 100 µM and the GI50 (COLO 205 colon) was 1.62 µM. For the same molecule, the TGI (COLO 205 colon) was 15.1 µM, the GI50 (DU-145 prostate) was 1.49 µM and the TGI (DU-145 prostate) was 13 µM. The GI50 (EKVX NSCLC) was 1.01 µM, the TGI (EKVX NSCLC) was 16.2 µM and the GI50 (HCC-2998 colon) was 3.51 µM. It also gave a TGI (HCC-2998 colon) of 27.8 µM, a GI50 (HCT-116 colon) of 0.725 µM and a TGI (HCT-116 colon) of 12.4 µM. The GI50 (HCT-15 colon) was 0.324 µM, the TGI (HCT-15 colon) was 21.7 µM and the GI50 (HL-60(TB) leukemia) was 1.43 µM. For the same molecule, the TGI (HL-60(TB) leukemia) was 4.84 µM, the GI50 (HOP-62 NSCLC) was 0.613 µM and the TGI (HOP-62 NSCLC) was 6.3 µM. For the same molecule, the GI50 (HOP-92 NSCLC) was 2.6 µM, the TGI (HOP-92 NSCLC) was 28.9 µM and the GI50 (HS 578T breast) was 4.55 µM. It also gave a TGI (HS 578T breast) of over 100 µM, a GI50 (HT29 colon) of 0.599 µM and a TGI (HT29 colon) of 14.1 µM. The GI50 (IGROV1 ovarian) was 0.747 µM, the TGI (IGROV1 ovarian) was 11.5 µM and the GI50 (K-562 leukemia) was 0.599 µM. For the same molecule, the TGI (K-562 leukemia) was over 100 µM, the GI50 (KM12 colon) was 1.19 µM and the TGI (KM12 colon) was 16.5 µM. For the same molecule, the GI50 (LOX IMVI melanoma) was 0.893 µM, the TGI (LOX IMVI melanoma) was 11 µM and the GI50 (M14 melanoma) was 1.61 µM. For the same molecule, the TGI (M14 melanoma) was 12.1 µM, the GI50 (MALME-3M melanoma) was 2.81 µM and the TGI (MALME-3M melanoma) was 54.2 µM. For the same molecule, the GI50 (MCF7 breast) was 0.932 µM, the TGI (MCF7 breast) was 8.1 µM and the GI50 (MDA-MB-231 breast) was 2.3 µM. For the same molecule, the TGI (MDA-MB-231 breast) was 20.2 µM, the GI50 (MDA-MB-435) was 3.95 µM and the TGI (MDA-MB-435) was over 100 µM. It also gave a GI50 (MOLT-4 leukemia) of 0.773 µM, a TGI (MOLT-4 leukemia) of over 100 µM and a GI50 (NCI-H226 lung) of 3.33 µM. The TGI (NCI-H226 lung) was 23.1 µM, the GI50 (NCI-H23 lung) was 2.45 µM and the TGI (NCI-H23 lung) was 18.5 µM. For the same molecule, the GI50 (NCI-H460 lung) was 0.568 µM, the TGI (NCI-H460 lung) was 5.43 µM and the GI50 (NCI-H522 lung) was 2.12 µM. It also gave a TGI (NCI-H522 lung) of 5.55 µM, a GI50 (NCI/ADR-RES ovarian) of 0.569 µM and a TGI (NCI/ADR-RES ovarian) of 6.32 µM. For the same molecule, the GI50 (OVCAR-4 ovarian) was 2.05 µM, the TGI (OVCAR-4 ovarian) was 55.8 µM and the GI50 (OVCAR-5 ovarian) was 1.31 µM. It also gave a TGI (OVCAR-5 ovarian) of 16.1 µM, a GI50 (OVCAR-8 ovarian) of 1 µM and a TGI (OVCAR-8 ovarian) of 10.6 µM. The GI50 (PC-3 prostate) was 2.17 µM, the TGI (PC-3 prostate) was 19.8 µM and the GI50 (RPMI-8226 leukemia) was 0.955 µM. The TGI (RPMI-8226 leukemia) was 49.2 µM, the GI50 (RXF 393 renal) was 1.62 µM and the TGI (RXF 393 renal) was 7.56 µM. It also gave a GI50 (SF-268 CNS) of 1.38 µM, a TGI (SF-268 CNS) of 33.9 µM and a GI50 (SF-295 CNS) of 0.627 µM. It also gave a TGI (SF-295 CNS) of 15.8 µM, a GI50 (SF-539 CNS) of 1.49 µM and a TGI (SF-539 CNS) of 10.4 µM. It also gave a GI50 (SK-MEL-2 melanoma) of 2.48 µM, a TGI (SK-MEL-2 melanoma) of 10.8 µM and a GI50 (SK-MEL-28 melanoma) of 3.4 µM. For the same molecule, the TGI (SK-MEL-28 melanoma) was 21.4 µM, the GI50 (SK-MEL-5 melanoma) was 2.81 µM and the TGI (SK-MEL-5 melanoma) was 8.1 µM. It also gave a GI50 (SK-OV-3 ovarian) of 1.67 µM, a TGI (SK-OV-3 ovarian) of 12.8 µM and a GI50 (SN12C renal) of 2.16 µM. The TGI (SN12C renal) was over 100 µM, the GI50 (SNB-19 CNS) was 2.39 µM and the TGI (SNB-19 CNS) was 24.6 µM. The GI50 (SNB-75 CNS) was 3.72 µM, the TGI (SNB-75 CNS) was 30.9 µM and the GI50 (SR leukemia) was 0.416 µM. The TGI (SR leukemia) was over 100 µM, the GI50 (SW-620 colon) was 1.93 µM and the TGI (SW-620 colon) was 16.7 µM. For the same molecule, the GI50 (T-47D breast) was 2.39 µM, the TGI (T-47D breast) was 48.2 µM and the GI50 (TK-10 renal) was 1.6 µM. For the same molecule, the TGI (TK-10 renal) was 9.84 µM, the GI50 (U251 CNS) was 1.19 µM and the TGI (U251 CNS) was 14.6 µM. It also gave a GI50 (UACC-257 melanoma) of 2.14 µM, a TGI (UACC-257 melanoma) of 6.87 µM and a GI50 (UACC-62 melanoma) of 2.62 µM. For the same molecule, the TGI (UACC-62 melanoma) was 8.34 µM, the GI50 (UO-31 renal) was 0.375 µM and the TGI (UO-31 renal) was 9.57 µM.
